# Experimental data as given in publication PMC12432127, “Assessing the potential of bacterial signal peptides for radiopharmaceutical applications” (Scientific Reports, 2025).
# Several values for one entry are separate records, joined by “and”; a condition that tells them apart may be missing. Equal values may be shown once. Residues, ends and D or L forms follow the SMILES beside them. Groups on a side chain read outwards from the residue. *: point of attachment. DOTA = O=C(O)CN1CCN(CC(=O)O)CCN(CC(=O)*)CCN(CC(=O)O)CC1; Ahx = NCCCCCC(=O)O; For = O=C*
# What was measured:
# [1] = Stability in human plasma (radio-HPLC); type: in vitro ADME; conditions: human plasma, 37 °C
# Procedure: The radiolabelled compound (50 µL) was added to male human AB plasma (500 µL, Sigma Aldrich, USA, male AB) and incubated at 37 °C. Samples of 100 µL were taken at selected time points. The plasma proteins were precipitated with acetonitrile (-20 °C) and the precipitate was centrifuged for 1 min at 1500 rpm. The supernatant was analyzed by analytical radio-HPLC.
# [2] = tested on: U87-MG cells; test: Calcium imaging (FLIPR) in U87-MG cells; type: cell-based, human; conditions: for EC50: U87-MG cells, read-out: EC50 Ca2+ flux; for Calicum signal (dF/F0): U87 cells
# Procedure: (§1) Automated high-throughput Ca^2+ measurements using a fluorescence imaging plate reader (FLIPR, Molecular Devices) were performed. Briefly, […] were seeded in 96-well plates (~ 50,000 cells/well) one day before the experiments and incubated at 37 °C. HEK293T cells were co-transfected with the receptor or mock and the G protein Gα16 for 48 h. On the day of the experiments, the medium was removed, and the cells were loaded with a loading solution consisting of 2 µM Calbryte dye in C1 buffer (Calbryte 520AM, AAT Bioquest 20651) 50 µL per well, for at least 2 h at RT in the dark. After 2 h of loading with the fluorescent dye, the solution was removed, the plate was washed three times using an ELX50 washer (BioTek), and the intracellular release of calcium was measured using FLIPR. A Ca^2+ response was defined as an increase in the excitation ratio (340 nm/380 nm) that was at least four times higher than the mean baseline noise after bath application.
# (§2) The results are expressed as the means ± standard deviations of the number of the indicated determinations. Calcium measurement experiments were routinely performed as triplicates and averaged over at least three independent transfections. Response amplitudes (F/F0) were calculated by dividing maximal fluorescence change after ligand application by baseline fluorescence. Maximal amplitudes were set to 100%, and curves were calculated with Graph Pad Prism Version 10.1 (GraphPad Software, Boston, MA, USA). S.D. values were calculated as averages from independently obtained EC50 values using the STDEV. Data derived from experiments were analyzed by two-way ANOVA. P < 0.05 was accepted as significant.
# [3] = target: T1, FPR1 (Homo sapiens, UniProt P21462); test: High-throughput calcium imaging (FLIPR), FPR1 transfected HEK293T cells; type: cell-based; conditions: for Calicum signal (dF/F0): FPR1-HEK; for EC50: FPR1 transfected HEK293T cells, peak calcium response, read-out: EC50 Ca2+ mobilization
# T1 construct: expressed in transfected cells; host or cells: HEK293T (transient, jetPEI)
# T1 sequence (P21462 1-350): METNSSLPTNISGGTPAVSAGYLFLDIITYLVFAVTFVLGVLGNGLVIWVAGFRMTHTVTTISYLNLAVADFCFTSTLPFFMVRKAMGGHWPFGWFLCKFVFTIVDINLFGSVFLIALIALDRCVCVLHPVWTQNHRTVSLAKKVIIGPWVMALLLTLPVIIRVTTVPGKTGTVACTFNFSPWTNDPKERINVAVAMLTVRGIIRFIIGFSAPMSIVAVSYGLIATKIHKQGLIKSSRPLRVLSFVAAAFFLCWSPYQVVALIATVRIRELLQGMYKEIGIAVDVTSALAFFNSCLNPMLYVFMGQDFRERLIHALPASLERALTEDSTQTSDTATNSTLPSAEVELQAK
# Procedure: Cell transfection was performed approximately 24 h after seeding the cells, when they reached about 70% confluence. Transfection was carried out using jetPEI™ (Polyplus) according to the following protocol: 0.25 µg DNA was diluted in 10 µL NaCl (150 mM). 0.5 µL of jetPEI™ solution in 10 µL NaCl was mixed with the DNA solution and incubated at RT for 15–30 min. After incubation, 20 µL of the jetPEI™/DNA mixture was added dropwise to the cells, which were then placed in the cell culture incubator at 37 °C and 5% CO2. After 18 to 24 h of transfection, the medium was replaced, and 100 µL per well was added, then placed back in the incubator.
# as §1, §2
# [4] = Log Concentration (M) -6,5, single replicate values, listed as f-MVPIK(Ahx-DOTA-Ga)I
# [5] = Log Concentration (M) -6, single replicate values, listed as f-MVPIK(Ahx-DOTA-Ga)I
# [6] = Log Concentration (M) -7,5, single replicate values, listed as f-MVPIK(Ahx-DOTA-Ga)I
# [7] = Log Concentration (M) -7, single replicate values, listed as f-MVPIK(Ahx-DOTA-Ga)I
# [8] = Log Concentration (M) -8,5, single replicate values, listed as f-MVPIK(Ahx-DOTA-Ga)I
# [9] = Log Concentration (M) -8, single replicate values, listed as f-MVPIK(Ahx-DOTA-Ga)I
# [10] = Log Concentration (M) -9, single replicate values, listed as f-MVPIK(Ahx-DOTA-Ga)I
# [11] = Log Concentration (M) -6,5, single replicate values, listed as f-MVPIK(Ahx-DOTA-Lu)I
# [12] = Log Concentration (M) -6, single replicate values, listed as f-MVPIK(Ahx-DOTA-Lu)I
# [13] = Log Concentration (M) -7,5, single replicate values, listed as f-MVPIK(Ahx-DOTA-Lu)I
# [14] = Log Concentration (M) -7, single replicate values, listed as f-MVPIK(Ahx-DOTA-Lu)I
# [15] = Log Concentration (M) -8,5, single replicate values, listed as f-MVPIK(Ahx-DOTA-Lu)I
# [16] = Log Concentration (M) -8, single replicate values, listed as f-MVPIK(Ahx-DOTA-Lu)I
# [17] = Log Concentration (M) -9, single replicate values, listed as f-MVPIK(Ahx-DOTA-Lu)I
molecule,measurement,setting,value
"CC[C@H](C)[C@H](NC(=O)[C@H](CCCCNC(=O)CCCCCNC(=O)CN1CCN(CC(=O)O)CCN(CC(=O)O)CCN(CC(=O)O)CC1)NC(=O)[C@@H](NC(=O)[C@@H]1CCCN1C(=O)[C@@H](NC(=O)[C@H](CCSC)NC=O)C(C)C)[C@@H](C)CC)C(=O)O [[^68Ga]Ga-f-MVPIK(Ahx-DOTA)I, metal not drawn] (For-MVPIK([Ahx-DOTA])I-OH)",time stable in human plasma,[1],at least 4 h
"CC[C@H](C)[C@H](NC(=O)[C@H](CCCCNC(=O)CCCCCNC(=O)CN1CCN(CC(=O)O)CCN(CC(=O)O)CCN(CC(=O)O)CC1)NC(=O)[C@@H](NC(=O)[C@@H]1CCCN1C(=O)[C@@H](NC(=O)[C@H](CCSC)NC=O)C(C)C)[C@@H](C)CC)C(=O)O [^natGa-f-MVPIK(Ahx-DOTA)I, metal not drawn] (For-MVPIK([Ahx-DOTA])I-OH)",EC50,[2],29 ± 2.1 nM
same,Calicum signal (dF/F0),[2]; [4],"1,2 and 1,8 and 0,91 and 1,18 and 1,37"
same,Calicum signal (dF/F0),[2]; [5],"1,22 and 1,2 (2×) and 0,96 and 1,41"
same,Calicum signal (dF/F0),[2]; [6],"0,77 and 0,6 (2×) and 0,61 and 0,7"
same,Calicum signal (dF/F0),[2]; [7],"0,98 and 0,86 and 0,8 and 1,02 and 0,95"
same,Calicum signal (dF/F0),[2]; [8],"0,4 and 0,38 and 0,33 and 0,46 and 0,35"
same,Calicum signal (dF/F0),[2]; [9],"0,45 and 0,46 (2×) and 0,65 and 0,58"
same,Calicum signal (dF/F0),"[2]; Log Concentration (M) -9,5, single replicate values, listed as f-MVPIK(Ahx-DOTA-Ga)I","0,04 and 0,02 (3×) and 0,01"
same,Calicum signal (dF/F0),[2]; [10],"0,11 (2×) and 0,17 and 0,14 and 0,13"
same,Calicum signal (dF/F0),[3]; [4],"0,85 and 0,8 and 0,68"
same,Calicum signal (dF/F0),[3]; [5],"0,85 and 0,89 and 0,8"
same,Calicum signal (dF/F0),[3]; [6],"0,66 and 0,52 and 0,6"
same,Calicum signal (dF/F0),[3]; [7],"0,74 and 0,87 and 0,65"
same,Calicum signal (dF/F0),[3]; [8],"0,12 and 0,27 and 0,23"
same,Calicum signal (dF/F0),[3]; [9],"0,28 and 0,27 and 0,3"
same,Calicum signal (dF/F0),[3]; [10],"0,14 and 0,13 and 0,12"
same,EC50,[3],20 ± 1 nM
"CC[C@H](C)[C@H](NC(=O)[C@H](CCCCNC(=O)CCCCCNC(=O)CN1CCN(CC(=O)O)CCN(CC(=O)O)CCN(CC(=O)O)CC1)NC(=O)[C@@H](NC(=O)[C@@H]1CCCN1C(=O)[C@@H](NC(=O)[C@H](CCSC)NC=O)C(C)C)[C@@H](C)CC)C(=O)O [^natLu-f-MVPIK(Ahx-DOTA)I, metal not drawn] (For-MVPIK([Ahx-DOTA])I-OH)",EC50,[2],10 ± 0.9 nM
same,Calicum signal (dF/F0),[2]; [11],"1,2 and 1,34 and 1 and 1,14 and 0,83"
same,Calicum signal (dF/F0),[2]; [12],"1,39 and 1,4 and 1,3 and 1,55 and 1,9"
same,Calicum signal (dF/F0),[2]; [13],"0,86 and 0,93 and 0,8 and 0,82 and 0,85"
same,Calicum signal (dF/F0),[2]; [14],"0,98 (2×) and 0,94 and 1,8 and 0,96"
same,Calicum signal (dF/F0),[2]; [15],"0,62 (3×) and 0,55 and 0,58"
same,Calicum signal (dF/F0),[2]; [16],"0,71 and 0,66 and 0,58 and 0,5 and 0,63"
same,Calicum signal (dF/F0),"[2]; Log Concentration (M) -9,5, single replicate values, listed as f-MVPIK(Ahx-DOTA-Lu)I","0,06 (2×) and 0,07 and 0,09 and 0,01"
same,Calicum signal (dF/F0),[2]; [17],"0,12 (2×) and 0,21 and 0,14 and 0,18"
same,Calicum signal (dF/F0),[3]; [11],"0,91 and 0,74 and 0,82"
same,Calicum signal (dF/F0),[3]; [12],"0,93 and 0,87 and 0,9"
same,Calicum signal (dF/F0),[3]; [13],"0,7 and 0,5 and 0,6"
same,Calicum signal (dF/F0),[3]; [14],"0,89 and 0,6 and 0,71"
same,Calicum signal (dF/F0),[3]; [15],"0,31 and 0,28 and 0,34"
same,Calicum signal (dF/F0),[3]; [16],"0,58 and 0,41 and 0,43"
same,Calicum signal (dF/F0),[3]; [17],"0,13 and 0,23 and 0,2"
same,EC50,[3],12 ± 1 nM
CC[C@H](C)[C@H](NC(=O)[C@H](CCCCNC(=O)CCCCCNC(=O)CN1CCN(CC(=O)O)CCN(CC(=O)O)CCN(CC(=O)O)CC1)NC(=O)[C@@H](NC(=O)[C@@H]1CCCN1C(=O)[C@@H](NC(=O)[C@H](CCSC)NC=O)C(C)C)[C@@H](C)CC)C(=O)O [f-MVPIK(Ahx-DOTA)I] (For-MVPIK([Ahx-DOTA])I-OH),EC50,[2],5.6 ± 0.9 nM
same,EC50,[3],23 ± 2 nM
f-MLFKYS,sensitivity to FPR1 compared with FPR2 (calcium),[3]; FPR1 vs FPR2,very similar sensitivity to FPR1 and FPR2
